This passage reports TGI and GI50 results from PubChem BioAssay (NCI).

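Tested at 5 concentrations; 48 h exposure; 96-well plates; endpoints linearly interpolated, else capped at highest concentration. GI50 is the concentration that inhibits growth by half. TGI: concentration producing complete growth inhibition.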

Some test systems named below: SNB-19 CNS; TK-10 renal; HL-60(TB) leukemia; RXF 393 renal; HOP-92 NSCLC; MCF7 breast; OVCAR-5 ovarian; NCI/ADR-RES ovarian; CAKI-1 renal; HS 578T breast.
Holding throughout (experiment): NCI-60 cell line screen, 48 h

For the molecule `C=C(C)C1C/C=C(/C)CCCC2(CCC3=C(CC(C(=C)C)C/C=C(/C)CCC3)O2)C(=O)C1` (stereo not drawn), the TGI with SNB-19 CNS, in the assay on TK-10 renal, in the assay with HL-60(TB) leukemia, in the assay on RXF 393 renal and in the assay on HOP-92 NSCLC was more than 100 µM each time.

Turning to `O=c1cc(N2CCCC2)[nH]c(=O)n1-c1ccccc1`, the TGI in the assay on MCF7 breast, in the assay on SNB-19 CNS, in the assay on TK-10 renal, with HL-60(TB) leukemia, in the assay on OVCAR-5 ovarian and in the assay with NCI/ADR-RES ovarian was more than 100 µM in each case. In addition, the TGI in the assay on CAKI-1 renal and in the assay with HOP-92 NSCLC was more than 100 µM throughout.

`CC1(C)[C@H]2CC[C@@]13C(=O)N1C(=O)O[C@@H]([C@H]1Cl)C(Cl)(COCc1ccccc1)C(=O)OCCO[C@H]3C2` (stereo partly drawn): the TGI with HS 578T breast, with MCF7 breast, in the assay with SNB-19 CNS, in the assay with HL-60(TB) leukemia, in the assay with OVCAR-5 ovarian and in the assay on NCI/ADR-RES ovarian was more than 100 µM each time. The TGI with CAKI-1 renal and with HOP-92 NSCLC was more than 100 µM in each case.

`C=C1c2nc3ccccc3n2C=C(c2ccc(Cl)cc2)N1c1ccc(OC)cc1`: the TGI in the assay with MCF7 breast is 31.8 µM; with SNB-19 CNS, 12.7 µM; in the assay with TK-10 renal it was 13.2 µM; with HL-60(TB) leukemia, more than 100 µM; in the assay on OVCAR-5 ovarian, 35 µM; with NCI/ADR-RES ovarian, 14 µM. Further, the figures for the TGI in the assay on RXF 393 renal, in the assay on CAKI-1 renal and in the assay on HOP-92 NSCLC were 21.6 µM, 19.1 µM and 43.6 µM, respectively.

For `Cc1cnc2c(c1)C(=O)C1=C(C2=O)C2OC(=O)CC2OC1(C)C` (stereo not drawn), the TGI with HS 578T breast worked out at 0.693 µM; in the assay on MCF7 breast it was 0.363 µM; in the assay with SNB-19 CNS, 2.61 µM; in the assay with TK-10 renal it was 1.95 µM; in the assay on HL-60(TB) leukemia, 0.0142 µM; in the assay on OVCAR-5 ovarian, 0.951 µM. Further, the TGI in the assay with RXF 393 renal turned out to be 0.507 µM; with CAKI-1 renal it was 0.405 µM; with HOP-92 NSCLC, 0.384 µM.

`NC(=O)N/N=C1\CC2C3CC4C2C4C13` (stereo not drawn): the TGI in the assay with HS 578T breast, with MCF7 breast, in the assay with SNB-19 CNS, in the assay on TK-10 renal, in the assay on HL-60(TB) leukemia and in the assay on OVCAR-5 ovarian was more than 100 µM in each case. Besides, the TGI with NCI/ADR-RES ovarian, in the assay on CAKI-1 renal and in the assay with HOP-92 NSCLC was more than 100 µM in each case.

Turning to `CCOC(=O)C(NC(=O)c1nc[nH]c1[N+](=O)[O-])C(C)C` (stereo not drawn), the TGI in the assay with SNB-19 CNS, in the assay on HL-60(TB) leukemia and in the assay on CAKI-1 renal was more than 100 µM each time.

With `CCON1CC(C(=O)OC)=C(O)C1=O`, the TGI in the assay on HS 578T breast, in the assay with MCF7 breast, in the assay on SNB-19 CNS, with TK-10 renal, in the assay on OVCAR-5 ovarian and with NCI/ADR-RES ovarian was more than 100 µM in each case. Further, the TGI with RXF 393 renal, in the assay with CAKI-1 renal and in the assay on HOP-92 NSCLC was more than 100 µM in each case.

With `OCc1ccc2c(c1)CC1(Cc3ccc(/C=N/O)cc3C1)C2` (stereo not drawn), the TGI in the assay on HS 578T breast is more than 26.4 µM; with SNB-19 CNS, more than 100 µM; with TK-10 renal it was more than 100 µM; with OVCAR-5 ovarian, more than 87.7 µM; in the assay on NCI/ADR-RES ovarian it was 37 µM; with CAKI-1 renal, more than 89.7 µM. In addition, the TGI in the assay on HOP-92 NSCLC amounted to 59.5 µM.

As to `O=C(c1ccncc1)C1C(=O)c2ccccc2C1C1(O)c2ccccc2CC1C(O)c1ccncc1` (stereo not drawn), the TGI in the assay on HS 578T breast, in the assay on MCF7 breast, with SNB-19 CNS, with TK-10 renal, with OVCAR-5 ovarian and in the assay with NCI/ADR-RES ovarian was more than 100 µM in each case. Besides, the TGI in the assay with RXF 393 renal, with CAKI-1 renal and in the assay on HOP-92 NSCLC was more than 100 µM in each case.

As for `O=c1cc(/C=C/c2ccccc2)[nH]c2cc3c(cc12)OCO3`, the TGI amounted to 8.75 µM in the assay on HS 578T breast; 21.5 µM in the assay with MCF7 breast; 13.4 µM with SNB-19 CNS; 29.4 µM in the assay on TK-10 renal; 14.2 µM with OVCAR-5 ovarian; 5.38 µM in the assay with NCI/ADR-RES ovarian. Also, the TGI in the assay with RXF 393 renal worked out at 22 µM; in the assay with HOP-92 NSCLC, 14.8 µM. The GI50 in the assay with RXF 393 renal is 4.27 µM.

With `COC(=O)C1(Cc2ccc3c(c2)CCC3)Cc2ccccc2C1`, the TGI with HS 578T breast was more than 100 µM; in the assay on MCF7 breast, more than 100 µM; in the assay with SNB-19 CNS it was more than 100 µM; in the assay with TK-10 renal, more than 100 µM; in the assay on HL-60(TB) leukemia, 42.4 µM; in the assay on OVCAR-5 ovarian, more than 100 µM. Also, the TGI in the assay on NCI/ADR-RES ovarian and with CAKI-1 renal was more than 100 µM throughout.

`CC(=O)OC1CCC2C3CCc4c(C)ccc(OS(=O)(=O)c5ccccc5)c4C3CCC12C` (stereo not drawn): the TGI with MCF7 breast is more than 100 µM; with SNB-19 CNS, more than 100 µM; in the assay with TK-10 renal it was more than 100 µM; in the assay on HL-60(TB) leukemia, more than 100 µM; in the assay on OVCAR-5 ovarian, more than 100 µM; with RXF 393 renal, 94.4 µM. Moreover, the TGI in the assay with CAKI-1 renal was more than 100 µM; in the assay with HOP-92 NSCLC it was 37.9 µM.

On to `CC12CCCC3(CC(=O)C(C)(C)C3C(=O)C1)C2` (stereo not drawn), for which the TGI with HS 578T breast, in the assay on MCF7 breast, in the assay on SNB-19 CNS, in the assay with TK-10 renal, in the assay with HL-60(TB) leukemia and with OVCAR-5 ovarian was more than 100 µM each time. Besides, the TGI in the assay on NCI/ADR-RES ovarian, in the assay on CAKI-1 renal and in the assay on HOP-92 NSCLC was more than 100 µM in each case.

For the molecule `CCOC(=O)c1nc2cc(C(F)(F)F)ccc2nc1Nc1ccc(C(=O)NC(C(=O)OCC)C(=O)OCC)cc1`, the TGI in the assay with HS 578T breast is 37.5 µM; in the assay on MCF7 breast, 57.2 µM; in the assay with SNB-19 CNS, 55.3 µM; in the assay on TK-10 renal it was 97.4 µM; in the assay with HL-60(TB) leukemia, more than 100 µM; with OVCAR-5 ovarian, more than 100 µM. Further, the TGI in the assay with RXF 393 renal came to 28.8 µM; in the assay with CAKI-1 renal, 37 µM; in the assay with HOP-92 NSCLC, 58.8 µM.

As for `Cn1c2ccccc2c(=O)c2c(O)cc3c(c21)C=CC1(CCCCC1)O3`, the TGI in the assay with HS 578T breast, in the assay with MCF7 breast, in the assay on SNB-19 CNS, in the assay on TK-10 renal, with OVCAR-5 ovarian and in the assay on NCI/ADR-RES ovarian was more than 10 µM throughout. Moreover, the TGI in the assay with RXF 393 renal, with CAKI-1 renal and in the assay on HOP-92 NSCLC was more than 10 µM each time.
